This assay relates to C57BL/6 and p47phox-/- mice infected intranasally with A. fumigatus conidia. Description: Lung inflammation model: C57BL/6 and p47phox-/- mice infected intranasally with A. fumigatus. It is filed as in vivo. To be noted: p47phox-/- aspergillosis mice. The procedure: In vivo models mimicking human pathology such as lung and gut inflammation were prepared. A model of lung inflammation was tested using C57BL/6 and p47phox-/- mice. The mice were infected with A. fumigatus intranasally and treated them with Tβ4 for 7 consecutive days starting a week after the infection. LC3-II (FIG. 1F) and DAPK1 (FIG. 1G) expression were both defective in p47phox-/- mice, but restored by Tβ4 and ablated (LC3-II) upon siTβ4 (FIGS. 10A and 10B). In addition, gut inflammation was tested using the same mouse model. Acute colitis in p47phox-/- mice was initiated by administering […] in drinking water for 7 days followed by 7 days of DSS-free autoclaved water. Subsequently, Tβ4 was therapeutically administered daily for 7 days, after DSS treatment, at the time at which mice started to lose weight. Consistent with previous findings (de Luca et al., 2014), LC3-II (FIG. 1H) and DAPK1 (FIG. 1I) expression were both defective in the colon ofp47phox-/- mice with colitis as opposed to WT mice but restored upon treatment with T134 (FIGS. 1H and 1I). DAPK1 expression in colon lysates of C57BL/6 and p47^phox-/- mice subjected to DSS-induced colitis for a week and treated intraperitoneally with 5 mg/kg Tβ4 for 7 consecutive days after DSS treatment, n=6-10 mice per group. Data are presented as mean ±SD and are representative of two experiments. Mice were categorized as Naive (uninfected or untreated mice) or None (infected mice). For immunoblotting, normalization was performed on mouse β-actin or Gapdh and corresponding pixel density or ratio is depicted. For immunofluorescence, nuclei were counterstained with DAPI. Photographs were taken with a high-resolution microscope (Olympus BX51), 40× and 100× magnification. LC3 mean fluorescence intensity (MFI) was measured with the ImageJ software. In FIGS. 1F-1H, n=6-10 mice per group. Data are presented as mean ±SD and are representative of two experiments. Naïve, uninfected or untreated mice. None, infected mice.
Viable conidia from the A. fumigatus Af293 strain were obtained as described (De Luca et al., 2012). Mice were anesthetized in a plastic cage by inhalation of 3% isoflurane (Forane Abbot) in oxygen before intranasal instillation of 2×10^7 resting conidia/20 μl saline. For survival curves, p47^phox-/- mice were challenged with […] conidia/20 μl saline. Tβ4 was administered intraperitoneally (i.p.) at the dose of 5 mg/kg at an effective dose as described (Badamchian et al., Thymosin beta(4) reduces lethality and down-regulates inflammatory mediators in endotoxin-induced septic shock. Int Immunopharmacol, 2003 3(8): p. 1225-33), every day in concomitance with (days 0→7) or after (days 7→14) infection. DMOG (Merck Millipore) was administered i.p. at the dose of 8 mg/mouse concomitantly to the infection. For Hif1a silencing, each mouse received intranasal administration of 10 mg/kg unmodified siRNA [Duplex name mm.Ri.Hif1a.13.1 (IDT); 5′-[…]-3′; 3′-[…] -5′] and Tmsb4x silencing [Duplex name mm.Ri.Tmsb4x.13.1; 5′-[…]-3′; 3′-[…] -5′], or equivalent dose of nonspecific control siRNA duplex in a volume of 20 μl of duplex buffer (IDT). Intranasal siRNA was given once the day before infection and 1, 3 and 5 days after infection (Iannitti et al., 2013 Hypoxia promotes danger-mediated inflammation via receptor for advanced glycation end products in cystic fibrosis. Am J Respir Crit Care Med 188:1338-1350). It is known that lung-specific siRNA delivery can be achieved by intranasal administration without the use of viral vectors or transfection agents in vivo (Iannitti et al., 2013 Th17/Treg imbalance in murine cystic fibrosis is linked to indoleamine 2,3-dioxygenase deficiency but corrected by kynurenines. Am J Respir Crit Care Med 187:609-620). Mice were sacrificed 7 or 14 days post infection. Fungal burden was determined by qPCR and expressed as conidial equivalents (CE). Lung tissue was aseptically removed and homogenized in 3 ml of sterile saline. […]

`COC(=O)CNC(=O)C(=O)OC` [DMOG, dimethyloxalylglycine, reference compound]: the fungal burden entry (DMOG for 5 days (FIG. 7A)) is “reduced”. For the same molecule, the lung pathology result (DMOG for 5 days (FIG. 7B)) was “ameliorated”. Moreover, the HIF-1α expression result (DMOG for 5 days (FIG. 7C)) was “increased”. The HIF-1α-responsive genes entry (DMOG for 5 days (FIG. 7D)) is given as “up-regulated”.

Values taken from patent US20220241378A1, “COMPOSITIONS AND METHODS FOR TREATMENT OF CHRONIC GRANULOMATOUS DISEASE” (priority 2019, published 2022).
